From patent publication US8716292B2, “Riminophenazines with 2-(heteroaryl)amino substituents and their anti-microbial activity” (priority 2010, dated 2014)
In brackets after ≈: the same amount, converted by molar mass.

The compounds below were run on Mycobacterium tuberculosis H37Rv strains (assay: In vitro assay for antimicrobial susceptibility (microplate Alamar blue MIC)). Details: Mycobacterium tuberculosis, H37RV, 7H9, Alamar blue, inhibition ≧90%; read-out: MIC (μg/mL) against H37Rv.
Type: cell-based
Work on `CC(C)/N=c1\cc2n(-c3ccc(Cl)cc3)c3ccccc3nc-2cc1Nc1ccccn1` [TBI-1076, 5-(4-Chlorophenyl)-3-(1-methylethyl)imino-2-(2-pyridyl)amino-3,5-dihydrophenazine] yielded an MIC of 0.014 µg/mL (≈ 0.0318 µM). For `CC(C)/N=c1\cc2n(-c3ccc(F)c(F)c3)c3ccccc3nc-2cc1Nc1ccccn1` [TBI-1436, 5-(3,4-Difluorophenyl)-3-(1-methylethyl)imino-2-(2-pyridyl)amino-3,5-dihydrophenazine], the MIC was 0.028 µg/mL (≈ 0.0634 µM). For `Fc1ccc(-n2c3c/c(=N\C4CCOCC4)c(Nc4ncccn4)cc-3nc3ccccc32)cc1` [TBI-1084, 5-(4-Fluorophenyl)-3-(4-tetrahydropyranyl)imino-2-(pyrimidin-2-yl)amino-3,5-dihydrophenazine], the MIC was 0.043 µg/mL (≈ 0.0922 µM). `FC(F)(F)Oc1ccc(-n2c3c/c(=N\C4CCOCC4)c(Nc4ncccn4)cc-3nc3ccccc32)cc1` [TBI-830, 5-(4-Trifluoromethoxyphenyl)-3-(4-tetrahydropyranyl)imino-2-(pyrimidin-2-yl)amino-3,5-dihydrophenazine] gave an MIC of 0.014 µg/mL (≈ 0.0263 µM).

Same assay, conditions: Mycobacterium tuberculosis, H37RV, in vitro, Mycobacterium tuberculosis H37Rv strains; read-out: MIC (μg/mL) against H37Rv
`CO[C@H]1CC[C@H](/N=c2\cc3n(-c4ccc(F)cc4)c4ccccc4nc-3cc2Nc2ccc(NC(C)=O)nc2)CC1` [TBI-915, 5-(4-Fluorophenyl)-3-(1′,4′-trans-4-methoxycyclohexyl)imino-2-(6-acetamino-3-pyridyl)amino-3,5-dihydrophenazine] gave an MIC of 0.211 µg/mL (≈ 0.383 µM). Work on `Clc1ccc(-n2c3c/c(=N\C4CCOCC4)c(Nc4cncc(Br)c4)cc-3nc3ccccc32)cc1` [TBI-880, 5-(4-Chlorophenyl)-3-(4-tetrahydropyranyl)imino-2-(5-bromo-3-pyridyl)amino-3,5-dihydrophenazine] yielded an MIC of 0.036 µg/mL (≈ 0.0642 µM). Work on `COc1ncccc1Nc1cc2nc3cc(F)ccc3n(-c3ccc(Cl)c(Cl)c3)c-2c/c1=N\C1CC1` [TBI-875, 8-Fluoro-5-(3,4-dichlorophenyl)-3-cyclopropylimino-2-(2-methoxy-3-pyridyl)amino-3,5-dihydrophenazine] yielded an MIC of 0.047 µg/mL (≈ 0.0903 µM). In the case of `COc1ncccc1Nc1cc2nc3cc(F)ccc3n(-c3ccc(Cl)c(Cl)c3)c-2c/c1=N\C1CCC(OC)CC1` (centres unmarked) [TBI-879, 8-Fluoro-5-(3,4-dichlorophenyl)-3-(4-methoxycyclohexyl)imino-2-(2-methoxy-3-pyridyl)amino-3,5-dihydrophenazine], the MIC is reported as 0.109 µg/mL (≈ 0.184 µM). With `COc1ncccc1Nc1cc2nc3ccccc3n(-c3ccc(F)cc3)c-2c/c1=N\C1CCOCC1` [TBI-1003, 5-(4-Fluorophenyl)-3-(4-tetrahydropyranyl)imino-2-(2-methoxy-3-pyridyl)amino-3,5-dihydrophenazine] the MIC was 0.039 µg/mL (≈ 0.0787 µM). `COC1CCC(/N=c2\cc3n(-c4ccc(Br)cc4)c4ccccc4nc-3cc2Nc2cccnc2C)CC1` (centres unmarked) [TBI-509, 5-(4-Bromophenyl)-3-(4-methoxycyclohexyl)imino-2-(2-methyl-3-pyridyl)amino-3,5-dihydrophenazine] gave an MIC of 0.015 µg/mL (≈ 0.0264 µM). `COc1ncccc1Nc1cc2nc3ccccc3n(-c3ccccc3)c-2c/c1=N\C1CCC(OC)CC1` (centres unmarked) [TBI-063, 5-Phenyl-3-(4-methoxycyclohexyl)imino-2-(2-methoxy-3-pyridyl)amino-3,5-dihydrophenazine] showed an MIC of 0.06 µg/mL (≈ 0.119 µM). Work on `COc1ncccc1Nc1cc2nc3ccccc3n(-c3ccc(C)cc3)c-2c/c1=N\CCN1CCOCC1` [TBI-311, 5-(4-Methylphenyl)-3-(2-morpholinoethyl)imino-2-(2-methoxy-3-pyridyl)amino-3,5-dihydrophenazine] yielded an MIC of 0.125 µg/mL (≈ 0.24 µM). `COC1CCC(/N=c2\cc3n(-c4ccc(OC(F)(F)F)cc4)c4cc(F)ccc4nc-3cc2Nc2ccc(C)nc2)CC1` (centres unmarked) [TBI-852, 7-Fluoro-5-(4-trifluoromethoxyphenyl)-3-(4-methoxycyclohexyl)imino-2-(6-methyl-3-pyridyl)amino-3,5-dihydrophenazine] gave an MIC of 0.024 µg/mL (≈ 0.0406 µM). For `COC1CCC(N=c2cc3n(-c4ccc(C(F)(F)F)cc4)c4ccccc4nc-3cc2Nc2cccnc2C)CC1` (centres unmarked) [TBI-706, 5-(4-Trifluoromethylphenyl)-3-(4-methoxycyclohexyl)imino-2-(2-methyl-3-pyridyl)amino-3,5-dihydrophenazine], the MIC was 0.011 µg/mL (≈ 0.0197 µM). In the case of `Cc1ccncc1Nc1cc2nc3ccccc3n(-c3ccc(F)cc3)c-2c/c1=N\C1CC1` [TBI-940, 5-(4-Fluorophenyl)-3-cyclopropylimino-2-(4-methyl-3-pyridyl)amino-3,5-dihydrophenazine], the MIC is reported as 0.062 µg/mL (≈ 0.142 µM). `CC(C)/N=c1\cc2n(-c3ccccc3)c3ccccc3nc-2cc1Nc1cccnc1` [TBI-054, 5-Phenyl-3-(1-methyethyl)imino-2-(3-pyridyl)amino-3,5-dihydrophenazine] gave an MIC of 0.03 µg/mL (≈ 0.074 µM). `COCC(COC)/N=c1\cc2n(-c3ccc(Cl)cc3)c3ccccc3nc-2cc1Nc1cccnc1OC` [TBI-871, 5-(4-Chlorophenyl)-3-(1,3-dimethoxyisopropyl)imino-2-(2-methoxy-3-pyridyl)amino-3,5-dihydrophenazine] was tested, and the MIC was 0.03 µg/mL (≈ 0.0566 µM). Work on `COc1ccc2nc3cc(Nc4cccnc4OC)/c(=N/C4CCOCC4)cc-3n(-c3ccc(Cl)cc3)c2c1` [TBI-942, 7-Methoxy-5-(4-chlorophenyl)-3-(4-tetrahydropyranyl)imino-2-(2-methoxy-3-pyridyl)amino-3,5-dihydrophenazine] yielded an MIC of 0.125 µg/mL (≈ 0.231 µM). `COc1ncccc1Nc1cc2nc3ccccc3n(-c3ccc(NC(C)=O)cc3)c-2c/c1=N\C1CCC(OC)CC1` (centres unmarked) [TBI-1222, 5-(4-Acetamidophenyl)-3-(4-methoxycyclohexyl)imino-2-(2-methoxy-3-pyridyl)amino-3,5-dihydrophenazine] gave an MIC of 0.925 µg/mL (≈ 1.64 µM). Compound `COc1ccc2nc3cc(Nc4ccc(C)nc4)/c(=N/C4CC4)cc-3n(-c3ccc(Cl)cc3)c2c1` [TBI-868, 7-Methoxy-5-(4-chlorophenyl)-3-cyclopropylimino-2-(6-methyl-3-pyridyl)amino-3,5-dihydrophenazine] has an MIC of 0.028 µg/mL (≈ 0.0581 µM). `Cc1ccc(-n2c3c/c(=N\C4CCN(C)CC4)c(Nc4cccnc4C)cc-3nc3ccccc32)cc1` [TBI-326, 5-(4-Methylphenyl)-3-(N-methyl-4-piperidyl)imino-2-(2-methyl-3-pyridyl)amino-3,5-dihydrophenazine] gave an MIC of 0.1 µg/mL (≈ 0.205 µM). Compound `COC1CCC(/N=c2\cc3n(-c4ccc(Cl)cc4)c4cc(F)ccc4nc-3cc2Nc2ccc(C)nc2)CC1` (centres unmarked) [TBI-925] has an MIC of 0.078 µg/mL (≈ 0.144 µM). Work on `Cc1ccc(-n2c3c/c(=N\C4CCC4)c(Nc4cccnc4C)cc-3nc3ccccc32)cc1` [TBI-347, 5-(4-Methylphenyl)-3-cyclobutylimino-2-(2-methyl-3-pyridyl)amino-3,5-dihydrophenazine] yielded an MIC of 0.042 µg/mL (≈ 0.0943 µM). For `C/N=c1\cc2n(-c3ccccc3)c3ccccc3nc-2cc1Nc1cccnc1C` [TBI-078], the MIC was 0.019 µg/mL (≈ 0.0485 µM). For `Cc1ncccc1Nc1cc2nc3ccccc3n(-c3ccc(C(F)(F)F)cc3)c-2c/c1=N\C(C)C` [TBI-705, 5-(4-Trifluoromethylphenyl)-3-(1-methylethyl)imino-2-(2-methyl-3-pyridyl)amino-3,5-dihydrophenazine], the MIC was 0.014 µg/mL (≈ 0.0287 µM). Work on `COc1ncccc1Nc1cc2nc3ccccc3n(-c3ccc(C)cc3)c-2c/c1=N\C1CC1` [TBI-339, 5-(4-Methylphenyl)-3-cyclopropylimino-2-(2-methoxy-3-pyridyl)amino-3,5-dihydrophenazine] yielded an MIC of 0.033 µg/mL (≈ 0.0737 µM). Compound `CC(C)/N=c1\cc2n(-c3cccc(C(F)(F)F)c3)c3ccccc3nc-2cc1Nc1cccnc1` [TBI-730, 5-(3-Trifluoromethylphenyl)-3-(1-methylethyl)imino-2-(3-pyridyl)amino-3,5-dihydrophenazine] has an MIC of 0.205 µg/mL (≈ 0.433 µM). In the case of `O[C@H]1CC[C@H](/N=c2\cc3n(-c4cccc(Cl)c4)c4ccccc4nc-3cc2Nc2cccnc2)CC1` [TBI-811, 5-(3-Chlorophenyl)-3-(1′,4′-trans-4-hydroxycyclohexyl)imino-2-(3-pyridyl)amino-3,5-dihydrophenazine], the MIC is reported as 0.5 µg/mL (≈ 1.01 µM). In the case of `CN1CCC(/N=c2\cc3n(-c4ccccc4)c4ccccc4nc-3cc2Nc2cccnc2)CC1` [TBI-055, 5-Phenyl-3-(N-methyl-4-piperidyl)imino-2-(3-pyridyl)amino-3,5-dihydrophenazine], the MIC is reported as 0.5 µg/mL (≈ 1.09 µM). `COCC(C/N=c1\cc2n(-c3ccc(C(F)(F)F)cc3)c3ccccc3nc-2cc1Nc1cccnc1OC)OC` (centres unmarked) [TBI-744] showed an MIC of 0.059 µg/mL (≈ 0.105 µM). With `Cc1ccc(Nc2cc3nc4ccc(F)cc4n(-c4ccc(Cl)cc4)c-3c/c2=N\C(C)C)cn1` [TBI-914, 7-Fluoro-5-(4-chlorophenyl)-3-(1-methylethyl)imino-2-(6-methyl-3-pyridyl)amino-3,5-dihydrophenazine] the MIC was > 0.5 µg/mL. For `COc1ncccc1Nc1cc2nc3cc(C#N)ccc3n(-c3ccc(F)cc3)c-2c/c1=N\C1CCOCC1` [TBI-1066, 8-Cyano-5-(4-fluorophenyl)-3-(4-tetrahydropyranyl)imino-2-(2-methoxy-3-pyridyl)amino-3,5-dihydrophenazine], the MIC was > 6.64 µg/mL. For `COc1ncccc1Nc1cc2nc3ccccc3n(-c3ccccc3)c-2c/c1=N\CCN1CCOCC1` [TBI-065, 5-Phenyl-3-(2-morpholinoethyl)imino-2-(2-methoxy-3-pyridyl)amino-3,5-dihydrophenazine], the MIC was 0.08 µg/mL (≈ 0.158 µM). `COc1ccc2nc3cc(Nc4ccc(C)nc4)/c(=N/C4CCC(OC)CC4)cc-3n(-c3ccc(Cl)cc3)c2c1` (centres unmarked) [TBI-867, 7-Methoxy-5-(4-chlorophenyl)-3-(4-methoxycyclohexyl)imino-2-(6-methyl-3-pyridyl-amino)-3,5-dihydrophenazine] gave an MIC of 0.058 µg/mL (≈ 0.105 µM). `Cc1ccc(Nc2cc3nc4ccccc4n(-c4ccc(C(F)(F)F)cc4)c-3c/c2=N\C2CC2)cn1` [TBI-716, 5-(4-Trifluoromethylphenyl)-3-cyclopropylimino-2-(6-methyl-3-pyridyl)amino-3,5-dihydrophenazine] gave an MIC of 0.041 µg/mL (≈ 0.0844 µM). `COc1ncccc1Nc1cc2nc3ccc(F)cc3n(-c3ccc(OC(F)(F)F)cc3)c-2c/c1=N\C1CCOCC1` [TBI-855] was tested, and the MIC was 0.193 µg/mL (≈ 0.333 µM). `COc1ncccc1Nc1cc2nc3cc(F)ccc3n(-c3ccc(Cl)cc3)c-2c/c1=N\C(C)C` [TBI-929, 8-Fluoro-5-(4-chlorophenyl)-3-(1-methylethyl)imino-2-(2-methoxy-3-pyridyl)amino-3,5-dihydrophenazine] showed an MIC of 0.125 µg/mL (≈ 0.256 µM).

Same assay, conditions: in vitro, Mycobacterium tuberculosis H37Rv strains
`COc1ncccc1Nc1cc2nc3ccccc3n(-c3ccc(F)c(F)c3)c-2c/c1=N\C1CCOCC1` [TBI-1428, 5-(3,4-Difluorophenyl)-3-(4-tetrahydropyranyl)imino-2-(2-methoxy-3-pyridyl)amino-3,5-dihydrophenazine] was tested, and the “MIC (μg/mL) against H37Rv” value was 0.054 µg/mL (≈ 0.105 µM).
